# Experimental data taken from patent US20220227735A1, “THERAPEUTIC METHODS AND COMPOUNDS” (RUTGERS, THE STATE UNIVERSITY OF NEW JERSEY, priority 2019, published 2022).
# Read-outs that look alike come from different tables or passages of the source.
# Experiments:
# [1] = tested on: human PKG (hPKG); experiment: Human PKG IMAP fluorescence polarization kinase assay; format: biochemical; details: compound at 10 μm; recombinant hPKG, 10 uM ATP, 1 uM cGMP, FAM-IP3R substrate
# Excerpt: Human PKG, cloned into a pENTR221 vector, was obtained from DNASU.org. (HsCD00351766). It was cloned into a mammalian expression plasmid, Gateway pDEST27 (Invitrogen) for expression as a GST fusion protein, using LR Clonase II Plus enzyme (Invitrogen). The hPKG-pDEST27 plasmid was amplified in DH5a Max Efficiency Competent Cells and purified with a PureYield Plasmid Midiprep System (Promega) following the manufactures protocol. Expi293 cells were transfected with hPKG-pDEST27 using the Expifectamine 293 Transfection Kit (Gibco). After 18 hours, enhancing reagent (Gibco) was added. Cells were then collected 48 hours post-enhancing, centrifuged at 2000×g for 10 min, washed in ice cold PBS and frozen as a pellet at −80° C. until protein purification. The cell pellet was lysed with Mammalian Protein Extraction Reagent (Thermo Fisher) for 10-15 minutes. The lysate was centrifuged at 21,000×g for 15 minutes at 4° C. The supernatant was incubated for 1 h at 4° C. with glutathione resin that was pre-washed 10 times with ice cold Wash Buffer (50 mM Hepes pH 7.8, 120 mM KCl, 20 mM NaCl, 10% glycerol). The resin was loaded onto a column and washed with resin wash buffer by gravity flow until no more protein was detectable in the washes by Bradford assay. Protein was eluted with 10 mg/ml glutathione in Wash buffer. The protein was concentrated using a 30K MWCO Corning Spin X concentrator and assayed for activity as described above.
# (§1) Plasmodium falciparum PKG (PfPKG) and human PKG (hPKG) kinase activity was assayed using a commercial immobilized metal ion affinity-based fluorescence polarization (IMAP) assay according to the manufactures protocol (Molecular Devices). Briefly, kinase assays (20 μl in black half volume 96 well microtiter plates) contained; 10 mM Tris-HCl, pH 7.2, 10 mM MgCl2, 0.05% NaN3, 0.01% Tween® 20, 10 uM ATP, 1 uM cGMP and 21 ng of recombinant enzyme per well. Compounds were preincubated with enzyme at 25° C. for 15 minutes and reactions were initiated with addition of 120 nM fluorescent peptide substrates, FAM-PKAtide for PfPKG and FAM-IP3R for hPKG (Molecular Devices). Fluorescent polarization was measured using a Synergy 2 Microplate reader (BioTek, Winooski, Vt.). Fluorescent polarization was read in parallel and perpendicular with an excitation wavelength of 485 nm and an emission wavelength of 528 nm. IC50 data were analyzed using a four parameter logistic curve fit using Microsoft Excel Solver.
# [2] = target: T1, Plasmodium falciparum PKG (PfPKG) (Plasmodium falciparum, UniProt Q8I719); experiment: PfPKG IMAP fluorescence polarization kinase assay; format: biochemical
# T1 construct: Full length PfPKG was cloned into the pTrcHisC vector for expression in BL21 (DE3) Star cells; His tag (pTrcHisC vector) (N); made in house; host or cells: E. coli BL21 (DE3) Star
# Procedure: Full length PfPKG was cloned into the pTrcHisC vector for expression in BL21 (DE3) Star cells. An LB culture containing 50 ug/ml carbenicillin (250 mL) was grown overnight at 37° C. The following day the culture was cooled on ice for about 10-15 minutes and divided equally into two new 125 mL cultures. 125 ml of fresh LB broth containing carbenicillin was added to each flask bringing the volume of each flask to 250 ml. Cultures were shaken at 18° C. before induction with IPTG (1.0 mM) for 18-24 h. The bacterial pellet was frozen at −80° C. until protein purification. Cells were lysed with Bacterial Protein Extraction Reagent (Thermo Scientific) on ice for 10-15 min. Supernatant was obtained after centrifugation of lysate at 21,000×g for 15 min at 4° C. Supernatant was incubated for 30 minutes at 4° C. with rotation with HisPur Cobalt Resin (Thermo Scientific), pre-washed with Wash Buffer (50 mM Hepes pH 7.8, 120 mM KCl, 20 mM NaCl, 10 mM Imidazole). Resin was added to a gravity column that was allowed to empty through gravity flow. The resin was washed with Wash buffer until no more protein is eluted off the column as determined by Bradford assay. A second wash was performed with Wash buffer containing 300 mM NaCl as in the previous wash step. Bound protein was eluted in 50 mM Hepes pH 7.8, 120 mM KCl, 20 mM NaCl, 250 mM Imidazole. Protein was dialyzed overnight in 50 mM Hepes pH 7.8, 120 mM KCl, 20 mM NaCl and 10% glycerol, with two buffer exchanges. Dialyzed protein was concentrated in a Corning Spin-X concentrator and assayed for activity using the IMAP FP Progressive Screening Expression kit (Molecular Devices, catalog #R8127) following the manufacturer's protocol.
# as §1
# [3] = recombinant PfPKG, 10 uM ATP, 1 uM cGMP, FAM-PKAtide substrate, read-out: PfPKG (μm)
# T1 sequence (Q8I719 whole entry): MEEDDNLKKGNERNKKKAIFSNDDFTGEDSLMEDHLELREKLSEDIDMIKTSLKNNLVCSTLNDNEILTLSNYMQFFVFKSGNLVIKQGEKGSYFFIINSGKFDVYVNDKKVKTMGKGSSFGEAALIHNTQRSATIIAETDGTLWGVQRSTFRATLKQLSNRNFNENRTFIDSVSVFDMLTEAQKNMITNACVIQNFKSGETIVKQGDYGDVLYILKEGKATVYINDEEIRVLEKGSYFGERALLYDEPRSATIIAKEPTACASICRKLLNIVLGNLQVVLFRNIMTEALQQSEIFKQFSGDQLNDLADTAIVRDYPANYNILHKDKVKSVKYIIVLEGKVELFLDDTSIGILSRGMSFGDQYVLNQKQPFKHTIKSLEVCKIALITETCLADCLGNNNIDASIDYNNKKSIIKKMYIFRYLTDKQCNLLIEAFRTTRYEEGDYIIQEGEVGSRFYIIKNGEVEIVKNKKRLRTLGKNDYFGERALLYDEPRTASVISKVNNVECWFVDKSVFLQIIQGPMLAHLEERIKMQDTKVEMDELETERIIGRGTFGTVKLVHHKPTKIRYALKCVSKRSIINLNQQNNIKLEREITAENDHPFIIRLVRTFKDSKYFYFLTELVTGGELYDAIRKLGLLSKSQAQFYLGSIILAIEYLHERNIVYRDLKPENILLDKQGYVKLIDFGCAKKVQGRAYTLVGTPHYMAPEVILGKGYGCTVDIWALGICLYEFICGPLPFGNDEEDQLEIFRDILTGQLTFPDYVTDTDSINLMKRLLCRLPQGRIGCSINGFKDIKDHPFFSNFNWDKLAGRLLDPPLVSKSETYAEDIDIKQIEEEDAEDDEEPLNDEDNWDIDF
SMILES,Human PKG (10 μm) [1],"IC50 [2, 3]",IC50 [2],"IC50 ([2]; read-out: PfPKG (μm), recombinant PfPKG, 10 uM ATP, 1 uM cGMP, FAM-PKAtide substrate)"
"CC(O)c1c(C2CCN(C)CC2)[nH]c(-c2ccc(F)cc2)c1-c1ccncc1 (centres unmarked) [Example 20, 1-(5-(4-fluorophenyl)-2-(1-methylpiperidin-4-yl)-4-(pyridin-4-yl)-1H-pyrrol-3-yl)ethan-1-ol]",3,< 1 µM,,
"CN1CCC(C)(c2cc(-c3ccncc3)c(-c3ccc(F)cc3)[nH]2)CC1 [Example 28, 4-(5-(1,4-dimethylpiperidin-4-yl)-2-(4-fluorophenyl)-1H-pyrrol-3-yl)pyridine]",29,,< 1 µM,
"CN(C)Cc1c(C2CCN(C)CC2)[nH]c(-c2ccc(F)cc2)c1-c1ccncc1 [Example 22, 1-(5-(4-fluorophenyl)-2-(1-methylpiperidin-4-yl)-4-(pyridin-4-yl)-1H-pyrrol-3-yl)-N,N-dimethylmethanamine]",−3,< 1 µM,,
"C[C@@H]1CN(C)CC[C@H]1c1cc(-c2ccncc2)c(-c2ccc(F)cc2)[nH]1 (single isomer, unassigned) [Example 32, 4-(5-(trans-1,3-dimethylpiperidin-4-yl)-2-(4-fluorophenyl)-1H-pyrrol-3-yl)pyridine]",66,,,< 1 µM
"CC(O)c1cc(-c2cc(C3CCN(C)CC3)[nH]c2-c2ccc(F)cc2)ccn1 (centres unmarked) [Example 10, 1-(4-(2-(4-fluorophenyl)-5-(1-methylpiperidin-4-yl)-1H-pyrrol-3-yl)pyridin-2-yl)ethan-1-ol]",−4,< 1 µM,,
"C[C@@H]1CN(C)CC[C@@H]1c1cc(-c2ccncc2)c(-c2ccc(F)cc2)[nH]1 (single isomer, unassigned) [Example 31, 4-(5-(cis-1,3-dimethylpiperidin-4-yl)-2-(4-fluorophenyl)-1H-pyrrol-3-yl)pyridine]",82,,< 1 µM,
"CN1CCC(c2[nH]c(-c3ccc(F)cc3)c(-c3ccncc3)c2C(N)=O)CC1 [Example 19, 5-(4-fluorophenyl)-2-(1-methylpiperidin-4-yl)-4-(pyridin-4-yl)-1H-pyrrole-3-carboxamide]",−8,< 1 µM,,
"CN1CCC(c2cc(-c3ccncc3Br)c(-c3ccc(F)cc3)[nH]2)CC1 [Example 1, 3-bromo-4-(2-(4-fluorophenyl)-5-(1-methylpiperidin-4-yl)-1H-pyrrol-3-yl)pyridine]",39,< 1 µM,,
"CN1CCC(c2cc(-c3ccnc(C(N)=O)c3)c(-c3ccc(F)cc3)[nH]2)CC1 [Example 5, 4-(2-(4-fluorophenyl)-5-(1-methylpiperidin-4-yl)-1H-pyrrol-3-yl)picolinamide]",28,< 1 µM,,
"CN1CCC(c2[nH]c(-c3ccc(F)cc3)c(-c3ccncc3)c2CS(C)(=O)=O)CC1 [Example 25, 4-(2-(4-fluorophenyl)-5-(1-methylpiperidin-4-yl)-4-((methylsulfonyl)methyl)-1H-pyrrol-3-yl)pyridine]",17,< 1 µM,,
